Experimental data: patent publication US20230165865A1, “HETEROARYLDIHYDROPYRIMIDINE DERIVATIVES AND METHODS OF TREATING HEPATITIS B INFECTIONS” (Janssen Pharmaceutica NV, priority 2018, published 2023)
Read-outs that look alike come from different tables or passages of the source.

Tests used:
HBV = assay: Anti-viral assay in HepG2.2.15 cells: anti-HBV activity, HBV DNA in culture medium by qPCR; type: cell-based; conditions: HepG2.2.15 cells, 6 days treatment, HBV DNA by qPCR, read-out: EC50
Experimental: (§1) HepG2.2.15 (the HepG2.2.15 cell line can be produced by transfection of the HepG2 cell line as described in Sells, Chen, and Acs 1987 (Proc. Natl. Acad. Sci. USA 84: 1005-1009), and the HepG2 cell line is available from ATCC® under number HB-8065™)
(§2) HepG2.2.15 cells were plated into 96-well plate in 2% FBS culture medium at the density of 40,000 cells/well and 5,000cells/well for HBV inhibitory activity and cytotoxicity determination, respectively. After incubation at 37° C., 5% CO2 overnight, cells were treated with medium containing compounds for 6 days with medium and compounds refreshed after 3 days of treatment. Each compound was tested in a 1:3 serial dilutions at 8 different concentrations in triplicate. The highest concentration of the compounds was 10 uM or 1 uM for anti-HBV activity assay and 100 uM for cytotoxicity determination.
The change of HBV DNA level induced by the compounds was assessed by quantitative real-time polymerase chain reaction (qPCR). Briefly, the HBV DNA in the culture medium was extracted using QIAamp 96 DNA Blood Kit according to the manual and then quantified by real-time PCR assay using the primers and probe in the table 1 below.
(§3) EC50 and CC50 values are calculated by the […] PRISM software.

HepG2.2.15 cells = assay: Cytotoxicity determination in HepG2.2.15 cells (CCK-8 assay); type: cell-based; conditions: 6 days treatment, CCK-8, highest concentration 100 uM
Experimental: as §1, §2
(§4) Cell viability was determined by CCK-8 assay. After 6 days of compounds treatment, 20 μl CCK-8 reagents were added to each well of cytotoxicity assay plates. Cell plates were incubated at 37° C., 5% CO2 for 2.5 h. The absorbance at 450 nm wavelength and the absorbance at 630 nm wavelength as reference was measured.
as §3

[1] = Pharmacokinetic and tissue distribution study via intravenous and oral administration in male C57BL/6 mice; type: in vivo
Experimental: Male C57BL/6 mice with a weight range of 20-25 g (Hua Fu Kang, China) were used. Animals were fasted overnight and free access to food 4 hours after dosing.
Test compound (correction factor: 1.00) was dissolved in a 20% hydroxypropyl-β-cyclodextrin (HP-β-CD) at a final concentration of 1 mg/ml for the intravenous (IV) formulation and at final concentrations of 0.5 mg/ml for the oral (PO) formulation. The intravenous formulation was dosed at 2 ml/kg to obtain a dose of 2 mg/kg. The oral formulations were dosed at 10 ml/kg to obtain final doses of 5 mg/kg.
Blood samples were taken at 7 and 20 min, 1, 2, 4, 8 and 24 h after intravenous dose administration. Blood and liver samples were taken at 30 min, 1, 2, 4, 8, 12 and 24 h after oral dose administration.
Approximately 0.020 mL blood will be collected into BD blood collection tubes containing K3-EDTA at each time point. Samples were placed immediately on melting ice and plasma was obtained following centrifugation at 4° C. for 5 minutes at approximately 4000×g. Plasma samples were adjusted to pH 3-4 by phosphoric acid and stored at −75±15° C. prior to analysis. The whole process was completed within 1 hour.
Liver samples were collected at adopted time point, and the vial containing the tissues sample was snap-frozen in liquid nitrogen right away and kept at −75±15° C. prior to analysis. All liver samples were weighed and homogenized with phosphoric acid solution (pH to 3-4) by liver weight (g) to phosphoric acid solution volume (mL) ratio 1:4 before analysis.
Plasma and liver samples were analyzed using LC-MS/MS methods. The lower limit of quantification (LLOQ) for plasma was 1.0 ng/ml and for liver was 2.5 ng/g. A non-compartmental analysis using the “Linear up log down” rule was used for all data. A limited pharmacokinetic analysis was performed using Phoenix™ Professional (Version 6.1).

human hepatocytes = assay: Metabolic stability of test compound in human hepatocyte cell; type: in vitro ADME; conditions: human hepatocytes
Experimental: • 1. The cryopreserved human hepatocytes cells were thawed in 37° C. water bath and diluted with pre-warmed incubation medium to a working cell density of 1×10^6 viable cells/mL. • 2. The 198 μL pre-warmed hepatocyte suspensions were spiked with 2 μL of 100 μM compound or reference compound(Verapamil) at a final concentration of 1.0 μM in a 96-well plate. The plate was incubated at 37° C., 900 rpm. All incubations will be performed in singlet. • 3. 25 μL aliquots of well contents were collected at time points of 0, 15, 30, 60, 90 and 120 minutes. The reactions were stopped by the addition of 6-fold volumes of cold acetonitrile with internal standards. • 4. After centrifugation for 25 minutes at 3,220 g. Aliquot of 100 μL of the supernatant was mixed with 100 μL of ultra-pure H2O and then used for LC-MS/MS analysis.
All calculations were carried out using Microsoft Excel. Peak areas were determined from extracted ion chromatograms. Determine the in vitro half-life (t1/2) of parent compound by regression analysis of the percent parent disappearance vs. time curve.
The in vitro half-life (in vitro t1/2) is determined from the slope value k:
Conversion of the in vitro t1/2(in min) into the in vitro intrinsic clearance (in vitro CLint, in μL/min/10^6 cells) is done using the following equation:
V=incubation volume (0.2 mL);
N=number of hepatocytes per well (0.2×10^6 cells).
Conversion of the in vitro t1/2(in min) into the scale-up intrinsic clearance (CLint(liver), in mL/min/kg) was done using the following equation:
CLint(liver)=kV/N×scaling factor

[2] = Cytotoxicity determination in HepG2.2.15 cells (CCK-8 assay); type: cell-based; conditions: human, 6 days treatment, CCK-8, highest concentration 100 uM
Experimental: as §1, §2, §4, §3

[3] = mice plasma, IV, nominal 2 mg/kg
[4] = Hepatitis B virus, HepG2.2.15, 144 h

## CCOC(=O)C1=C(CN2CCN3C(=S)N([C@@H]4CC[C@H](C(=O)O)C4)CC3C2)NC(c2nccs2)=N[C@H]1c1cccc(F)c1C (single isomer, unassigned) [Compound 24B]
HBV
  EC50: 0.001 µM
HepG2.2.15 cells
  CC50: 9.6 µM

## CCOC(=O)C1=C(CN2CCOCC2)NC(c2nccs2)=NC1c1ccc(F)cc1Br (stereo not shown) [Reference 1, GLS4, reference compound]
[1]; mice liver, PO
  Liver AUCinf/Dose: 69.2 ng·kg·h/g/mg
  Liver Cmax/Dose: 5.1 kg·ng/mg/mL
[1]; [3]
  IV AUCinf/Dose: 232.5 ng·kg·h/mg/mL
  IV Cl: 73.9 mL/min/kg
[1]; mice plasma, PO
  PO AUCinf/Dose: 17.3 ng·kg·h/mg/mL
[1]; mice plasma, PO, dose per compound in table (5.28-9.95 mg/kg)
  PO Cmax: 14.5 ng/mL
[1]; mice, PO vs IV
  F: 7.5%
Human hepatocytes; 1.0 μM, 0-120 min
  T½: 15.3 min
Human hepatocytes; scale-up intrinsic clearance, scaling factor 2544.3
  Clint (liver): 115.3 mL/min/kg

## CCOC(=O)C1=C(CN2CCN3C(=S)N([C@H]4CC[C@@H](C(=O)O)C4)CC3C2)NC(c2nccs2)=N[C@H]1c1cccc(F)c1C (single isomer, unassigned) [Compound 24D]
HBV
  EC50: 0.035 µM
HepG2.2.15 cells
  CC50: 9.4 µM

## COC(=O)C1=C(CN2CCN3C(=S)N(CC(C)(C)C(=O)O)CC3C2)NC(c2nccs2)=NC1c1ccc(F)cc1Cl (single isomer, unassigned) [Compound 4A, 3-(7-((6-(2-chloro-4-fluorophenyl)-5-(methoxycarbonyl)-2-(thiazol-2-yl)-3,6-dihydropyrimidin-4-yl)methyl)-3-thioxohexahydroimidazo[1,5-a]pyrazin-2(3H)-yl)-2,2-dimethylpropanoic acid]
HBV
  EC50: 0.049 µM
HepG2.2.15 cells
  CC50: 52.8 µM

## CCOC(=O)C1=C(CN2CCN3C(=S)N(C)C[C@@H]3[C@H]2C(=O)O)NC(c2nccs2)=N[C@H]1c1cccc(F)c1C (single isomer, unassigned) [Compound 35B]
HBV
  EC50: 0.0011 µM
HepG2.2.15 cells
  CC50: 46.6 µM

## CCOC(=O)C1=C(CN2CCN3C(=S)N(CC4(C(=O)O)CC4)CC3C2)NC(c2nccs2)=N[C@H]1c1cccc(F)c1C (single isomer, unassigned) [Compound 9B]
HBV
  EC50: 0.0007 µM
HepG2.2.15 cells
  CC50: 14.6 µM

## CCOC(=O)C1=C(CN2CCN3C(=S)N(CC(C)(C)C(=O)O)CC3C2)NC(c2nccs2)=N[C@H]1c1cccc(F)c1C (single isomer, unassigned) [Compound 1B]
HBV
  EC50: 0.043 µM
HepG2.2.15 cells
  CC50: 22.4 µM

## CCOC(=O)C1=C(CN2CCN3C(=S)N(CC4(C(=O)O)CC4)CC3C2)NC(c2nccs2)=N[C@H]1c1cccc(F)c1C (single isomer, unassigned) [Compound 9A]
HBV
  EC50: 0.064 µM
[2]
  CC50 at 6 days: 14.9 µM

## CCOC(=O)C1=C(CN2CCN3C(=S)N(CC(C)(C)C(=O)O)C[C@@H]3C2)NC(c2nccs2)=N[C@H]1c1ccc(F)c(F)c1C (single isomer, unassigned) [Compound 15B, 3-(7-((6-(3,4-Difluoro-2-methylphenyl)-5-(ethoxycarbonyl)-2-(thiazol-2-yl)-3,6-dihydropyrimidin-4-yl)methyl)-3-thioxohexahydroimidazo[1,5-a]pyrazin-2(3H)-yl)-2,2-dimethylpropanoic acid]
HBV; [4]
  EC50: 0.3 µM
[2]
  CC50 at 6 days: 45 µM

## CCOC(=O)C1=C(CN2CCN3C(=S)N(C[C@@H](C)C(=O)O)C[C@@H]3C2)NC(c2ncoc2C)=NC1c1cccc(F)c1C (single isomer, unassigned) [Compound 32B, 3-(7-((5-(Ethoxycarbonyl)-6-(3-fluoro-2-methylphenyl)-2-(5-methyloxazol-4-yl)-3,6-dihydropyrimidin-4-yl)methyl)-3-thioxohexahydroimidazo[1,5-a]pyrazin-2(3H)-yl)-2-methylpropanoic acid]
HBV
  EC50: 0.0274 µM
HepG2.2.15 cells
  CC50: 42.5 µM

## COC(=O)C1=C(CN2CCN3C(=S)N(CC(C)(C)C(=O)O)CC3C2)NC(c2nccs2)=NC1c1ccc(F)c(F)c1Cl (single isomer, unassigned) [Compound 11A, 3-(7-((6-(2-Chloro-3,4-difluorophenyl)-5-(methoxycarbonyl)-2-(thiazol-2-yl)-3,6-dihydropyrimidin-4-yl)methyl)-3-thioxohexahydroimidazo[1,5-a]pyrazin-2(3H)-yl)-2,2-dimethylpropanoic acid]
HBV; [4]
  EC50: 0.0019 µM
[2]
  CC50 at 6 days: 16.2 µM

## CCOC(=O)C1=C(CN2CCN3C(=S)N(CC(C)C(=O)O)C[C@@H]3C2)NC(c2nccs2)=N[C@H]1c1cccc(F)c1C (single isomer, unassigned) [Compound 27B]
HBV
  EC50: 0.0026 µM
HepG2.2.15 cells
  CC50: 25.3 µM
